# Assay results taken from patent publication US11401255B2, “Small molecule activators of Parkin enzyme function” (Mayo Foundation for Medical Education and Research, priority 2016, dated 2022).
# Read-outs that look alike come from different tables or passages of the source.
# Key:
# [1] = test system: Caco-2 cells; assay: Caco-2 A-B permeability assay; type: in vitro ADME; conditions: A-B, 90 min, pH=7.4
# Procedure: (§1) Caco-2 cells were cultivated in 75 cm^2 flasks to 80-90% of confluence according to the ATCC and Millipore recommendations (Millipore protocol note PC1060EN00P) in a humidified atmosphere at 37° C. and 5% CO2. Cells were detached with Trypsin/EDTA solution and re-suspended in the cell culture medium to a final concentration of 2×10^5 cells/mL. 500 μL of the cell suspension was added to each well of an HTS 24-multiwell insert system and 35 mL of prewarmed complete medium was added to the feeder tray. Caco-2 cells were incubated in the multiwell insert system for 10 days before the transport experiments. The medium in the filter plate and feeder tray was changed every other day. After 10 days of cell growth, the integrity of the monolayer was verified by measuring the transepithelial electrical resistance (TEER) for every well using the Millicell-ERS system ohm meter. […] The 24-well insert plate was removed from its feeder plate and placed in a new sterile 24-well transport analysis plate. The medium was aspirated and inserts washed with PBS.
# (§2) To determine the rate of drug transport in apical (A) to basolateral (B) direction, 300 μL of the test compound solution in buffer (HBSS, 5.6 mM glucose, 10 mM HEPES, pH=7.4) was added into the filter wells and 1000 μL of the same buffer was added to wells in the transport analysis plate. The plates were incubated for 90 min. at 37° C. with shaking at 50 rpm. 75 μL aliquots were taken from the apical and basolateral compartment for LC-MS/MS analysis. All samples for LC-MS/MS analysis were extracted by acetonitrile (×2 volume) followed by protein sedimentation by centrifuging at 10000 rpm for 10 minutes. Supernatants were analyzed using the HPLC system coupled with a tandem mass spectrometer.
# (§3) The apparent permeability (Papp) was calculated for the Caco-2 permeability assay using the following equation: Papp=(VA/((Area)×(Time))×([drug]acc/[drug]initial,d), where: […]
# [2] = Caco-2 A-B permeability assay; type: in vitro ADME; conditions: human
# Procedure: as §1, §2, §3
# [3] = target: CYP 2D6 (Homo sapiens (Human), UniProt P10635); assay: in vitro; conditions: Inhibition
# Procedure: CYP450 inhibition profiling provides valuable information regarding any possible drug-drug interactions for a test compound.
# All experiments were performed using P450-Glo™ Assay Systems (Promega) in accordance with the manufacturer's protocols. The P450-Glo™ Assays provide a luminescent readout-based method for measuring cytochrome P450 activity. A conventional cytochrome P450 reaction was performed by incubating the cytochrome P450 and a luminogenic cytochrome P450 substrate. The substrates in the P450-Glo™ assays are derivatives of beetle luciferin. The derivatives themselves are not substrates for luciferase but are converted by cytochrome P450s to luciferin, which in turn reacts with luciferase to produce light. The amount of light produced was directly proportional to cytochrome P450 activity. All test points were performed in quadruplicates. Control membranes (without CYPs) represented the Negative control (baseline).
# The following reference compounds were used to assess CYP inhibition: […]
# [4] = target: hERG channel (Homo sapiens (Human), UniProt Q12809)
# Description: Fluorescence polarization (FP) readout technology is based on the observation that when a small fluorescent molecule (the tracer) is excited by the polarized light, the emitted light is largely depolarized because of the rapid rotation of the molecule in the solution during its fluorescence lifetime. The hERG predictor assay provides valuable information about the possible binding of test compounds to the potassium channel and potential QT prolongation on […].
# All experiments were performed using the Predictor™ hERG Fluorescence Polarization Assay in accordance with the manufacturer's protocol PV5365 (Invitrogen, Carlsbad, Calif.).
# The hERG reaction was performed by incubating the tracer and membranes with hERG channel for 2-4 hours in the solution. The fluorescence polarization was maximal when nothing interfered with the reaction of the tracer and hERG membranes (minimal tracer rotation). But when a tested compound competed with the tracer for the hERG channel, the polarization of emitted light lowered due to the ability of free unbound tracer to rotate rapidly in the solution.
# All test points for the compounds were performed in quadruplicates. Three dilutions of the tested compounds were assessed—1 μM, 5 μM and 20 μM.
# [5] = test system: HeLa EGFP-Parkin cells; assay: Co-recruitment of autophagy receptors to mitochondria (immunofluorescence); type: cell-based, human
# Procedure: Cells were grown on poly-D-lysine coated glass coverslips. After treatments, cells were fixed in 4% paraformaldehyde and permeabilized using 1% Triton X-100, for each 10 min. Cells were blocked in 10% goat serum. Primary and secondary antibodies were diluted in 1% BSA/PBS and each incubated for 1 h at RT. Primary antibodies used: DNA (mouse, 1:250, Progen, AC-30-10), NBR1 (mouse, 1:100, Abnova H00004077-M01), NDP52 (rabbit, 1:400, Proteintech, 12229-1-AP), OPTN (mouse, 1:200, Santa Cruz, sc-166576), p62 (mouse, 1:400, BD Biosciences, 610832), pSer65-Ub (rabbit, 1:500, in-house (Fiesel et al., EMBO Reports (2015) 16:1114-30; Fiesel et al., (2015) Autophagy 11:2125-2126)), TAX1BP1 (rabbit, 1:200, Cell Signaling, #5105), TOM20 (mouse, 1:100, Santa Cruz, sc-17764), TOM20 (rabbit, 1:2000, Proteintech, 11802-1-AP). Secondary antibodies conjugated to AlexaFluor-568 or-647 (Invitrogen) were diluted 1:1000. Hoechst 33342 (Invitrogen) was diluted 1:5000 to counterstain the nuclei.
# To validate the activation of Parkin further downstream in the pathway, co-recruitment of endogenous autophagy receptors to mitochondria in HeLa EGFP-Parkin cells was analyzed. These dual adaptors recognize pSer65-Ub chains on damaged mitochondria and facilitate their engulfment by autophagosomal membrane via their interaction with LC3 proteins (Lazarou et al., Nature (2015) 524:309-14; Heo et al., Mol. Cell (2015) 60:7-20).
# [6] = Caco-2, pH 7.4, A-B, read-out: Permeability (individual replicates 1, 2)
# [7] = Caco-2, pH 7.4, A-B, read-out: Permeability Mean
# CYP 2D6, sequence (P10635 whole entry): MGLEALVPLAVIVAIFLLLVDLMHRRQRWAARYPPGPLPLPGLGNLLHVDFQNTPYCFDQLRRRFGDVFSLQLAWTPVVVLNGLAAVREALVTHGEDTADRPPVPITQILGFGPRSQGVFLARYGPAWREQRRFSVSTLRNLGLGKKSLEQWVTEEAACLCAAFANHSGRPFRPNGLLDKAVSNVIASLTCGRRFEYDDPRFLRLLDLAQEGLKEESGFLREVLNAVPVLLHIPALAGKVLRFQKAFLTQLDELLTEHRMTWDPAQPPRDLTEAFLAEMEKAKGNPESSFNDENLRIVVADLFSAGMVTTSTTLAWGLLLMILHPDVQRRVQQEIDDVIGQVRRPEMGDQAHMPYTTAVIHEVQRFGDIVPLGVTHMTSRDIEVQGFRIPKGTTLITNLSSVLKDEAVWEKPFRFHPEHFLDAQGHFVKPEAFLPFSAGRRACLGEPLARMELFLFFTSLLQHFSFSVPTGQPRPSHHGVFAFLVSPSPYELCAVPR
# hERG channel, sequence (Q12809 whole entry): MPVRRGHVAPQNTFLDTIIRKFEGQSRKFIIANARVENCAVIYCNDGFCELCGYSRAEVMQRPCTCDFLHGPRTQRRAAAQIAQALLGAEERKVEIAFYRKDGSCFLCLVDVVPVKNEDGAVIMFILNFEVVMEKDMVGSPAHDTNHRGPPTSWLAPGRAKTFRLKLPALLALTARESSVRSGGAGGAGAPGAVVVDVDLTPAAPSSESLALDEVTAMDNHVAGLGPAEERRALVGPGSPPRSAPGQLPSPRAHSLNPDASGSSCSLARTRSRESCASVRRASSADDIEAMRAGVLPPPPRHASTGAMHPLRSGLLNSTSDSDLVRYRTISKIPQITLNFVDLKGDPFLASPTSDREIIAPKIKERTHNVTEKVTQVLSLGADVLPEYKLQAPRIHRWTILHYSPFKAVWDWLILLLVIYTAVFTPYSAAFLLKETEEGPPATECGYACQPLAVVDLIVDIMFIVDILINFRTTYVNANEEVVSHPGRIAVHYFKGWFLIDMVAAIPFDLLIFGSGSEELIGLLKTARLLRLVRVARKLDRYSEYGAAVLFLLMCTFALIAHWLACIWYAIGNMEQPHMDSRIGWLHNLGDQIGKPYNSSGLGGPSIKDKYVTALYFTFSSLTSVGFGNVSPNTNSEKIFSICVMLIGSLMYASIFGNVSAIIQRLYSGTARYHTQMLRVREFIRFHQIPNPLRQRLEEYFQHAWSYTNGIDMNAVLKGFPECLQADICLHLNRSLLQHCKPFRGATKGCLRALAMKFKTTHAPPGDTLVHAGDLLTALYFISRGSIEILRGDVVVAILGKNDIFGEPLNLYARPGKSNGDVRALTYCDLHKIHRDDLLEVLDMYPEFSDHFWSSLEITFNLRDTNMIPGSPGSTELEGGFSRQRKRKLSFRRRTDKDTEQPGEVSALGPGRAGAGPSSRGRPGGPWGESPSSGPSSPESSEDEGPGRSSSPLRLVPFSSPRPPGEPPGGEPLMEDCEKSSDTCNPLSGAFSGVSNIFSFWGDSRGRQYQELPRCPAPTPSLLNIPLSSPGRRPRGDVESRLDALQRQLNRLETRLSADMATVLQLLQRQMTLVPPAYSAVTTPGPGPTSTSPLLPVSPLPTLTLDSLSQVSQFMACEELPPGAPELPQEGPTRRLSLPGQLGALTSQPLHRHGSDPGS
Compound,"Permeability (individual replicates 1, 2) [1]","Papp at 90 min [2, 6]","Papp at 90 min [2, 7]",inhibition at 10 µM ([3]; % (individual replicates)),inhibition at 10 µM ([3]; % Mean),"Binding values, % Mean ([4]; 1 μM)","Binding values, % Mean ([4]; 5 μM)","Binding values, % Mean ([4]; 20 μM)","co-localization of OPTN, NBR1, NDP52, p62 and TAX1BP1 with Parkin on damaged mitochondria [5]","Papp at 90 min ([2]; Caco-2, A-B, pH=7.4, read-out: Permeability (individual replicates 1, 2))"
O=C(Cn1cnc2c1CCCC2)Nc1ccc(-c2ccccc2)cc1 [Compound 1],12.1 10^−6 cm/s,8.3 ×10⁻⁶ cm/s,10.2 ×10⁻⁶ cm/s,18.5%,17%,83%,99%,103%,increased co-localization,–
CC(C)c1nccn1CC(=O)Nc1ccc(-c2ccccc2)cc1 [Compound 2],18.5 10^−6 cm/s,17.9 ×10⁻⁶ cm/s,18.2 ×10⁻⁶ cm/s,–,17.3%,47%,74%,91%,increased co-localization,–
CC(C)(C)Sc1ccc(NC(=O)Cn2ccnc2)cc1 [Compound 3],41.7 10^−6 cm/s,39.5 ×10⁻⁶ cm/s,40.6 ×10⁻⁶ cm/s,98.9%,99.7%,41%,115%,99%,increased co-localization,–
O=C(Cn1ccnc1-c1ccccn1)Nc1ccc(-c2ccccc2)cc1 [Compound 4],–,14.6 ×10⁻⁶ cm/s,15.3 ×10⁻⁶ cm/s,–,18.4%,26%,27%,22%,increased co-localization,15.9 ×10⁻⁶ cm/s
Cc1nc2c(c(N3CCCN(Cc4ccccc4)CC3)n1)CCCC2 [Compound 31],45.2 10^−6 cm/s,52.8 ×10⁻⁶ cm/s,49 ×10⁻⁶ cm/s,–,60.6%,45%,73%,88%,increased co-localization,–
